Reference: US9060968B2, “Treatment of degenerative joint disease” (AMPIO PHARMACEUTICALS, INC., priority 2011, dated 2015)

Test system: oxidized collagen IV
Test: Binding to H2O2 treated collagen IV (decrease in <5 kDa filtrate by LCMS)
Parameters: species or system human
Details: for Binding to collagen, result in words: oxidized forms of collagen
Description: Collagen source: 1 mg/ml Collagen IV form human placenta in 0.25% acetic acid (Sigma™). The collagen was oxidixed with 500 μM H2O2 in 1×PBS for 1 hour at 37° C. The oxidized collagen IV (final=0.2 mg/ml) was then incubated with 2 μM DA-DKP or 2 μM NAT in PBS for 1 hour at 37° C. At the end of the incubation, the <5 kDa fraction was isolated by a VIVASPIN® 2 microcentrifugal filter having a molecular weight cutoff of 5,000. The <5 kDa fraction was analyzed for DA-DKP and/or NAT content using a liquid chromatograph-mass spectrometery (LCMS) method for DA-DKP analysis.

Average % decrease (2 μM, oxidized collagen IV 0.2 mg/ml, 1 hour at 37° C., alone)	Binding to collagen, result in words	Compound
26.0%	bind to oxidized forms of collagen	C[C@@H]1NC(=O)[C@H](CC(=O)O)NC1=O [DA-DKP, aspartyl-alanyl diketopiperazine]
–	bind to oxidized forms of collagen	CC(=O)N[C@@H](Cc1c[nH]c2ccccc12)C(=O)O [NAT, N-acetyl-tryptophan]
